# Experimental data as given in US11571454B2, “Anticancer peptides that synergistically enhance chemotherapeutic potency” (The Penn State Research Foundation, priority 2017, dated 2023).
# Tested on: NCI/ADR-RES (drug-resistant ovarian carcinoma) cells
# Assay: MTT cytotoxicity assay, NCI/ADR-RES
# Format: cell-based, human
# Description: All cells were cultured using standard culture conditions at 37° C., 5% CO2, and 95% humidity. A549 (CCL-185), OVCAR-3 (HTB-161), T24 (HTB-4), and NCI/ADR-RES were cultured in RPMI-1640 supplemented with 10% v/v fetal bovine serum (FBS), 2 mM L-glutamine (L-Gln), 10,000 units penicillin/mL, 10 mg/mL streptomycin, and 25 μg/mL amphotericin B. HUVEC (PCS-100-010) cells were cultured in Vascular Cell Basal Media (PCS-100-030) supplemented with an Endothelial Cell Growth Kit-VEGF (PCS-100-041) and 10 μg/mL gentamycin in culture flasks coated with 0.1% gelatin by incubating at 37° C. for 15 min. NL20 (CRL-2503) cells were cultured in Ham's F12 supplemented with 1.5 g/L sodium bicarbonate, 2.7 g/L glucose, 2.0 mM L-glutamine, 0.1 mM nonessential amino acids, 0.005 mg/ml insulin, 10 ng/ml epidermal growth factor, 0.001 mg/ml transferrin, 500 ng/ml hydrocortisone and 4% fetal bovine serum, as advised by American Type Culture Collection (ATCC).
# Viability was calculated by comparing to an untreated control.
# All experiments were performed with n>6.
# Cell viability experiments were completed n>6 in two independent experiments and analyzed using GraphPad Prism 8 to fit curves and calculate IC50 values using inhibitor vs. normalized response non-linear regression model. IC50 values are reported as mean values±standard deviation. […] Pore size frequency distribution was completed by ImageJ FIJI on 4 independent cells and n=30 pores from SEM images. UV-Vis OD600 and CD spectra are means of 5 and 3 replicates, respectively and reported as mean±standard deviation. Individual UV-Vis and CD spectra, as well as fluorescent confocal and TEM micrographs, shown are representative plots from three individual experiments. CD data is with a variance in ellipticity of 0.2 millidegrees at each wavelength. Relative fluorescence data calculated from fluorescent confocal images represents the average of 10 independent measurements±standard deviation. For spheroid volume analysis, a Kruskal-Wallis test and Dunn's multiple comparisons test was performed using GraphPad Prism 8.
substance,measurement,setting,value
H-KRWHWWRRHWVVW-NH2 [MAD1],IC50,"48 hours treatment, MTT, read-out: Cancerous (IC50, μM) NCl/ADR-RES",85.6 µM
same,Therapeutic Index NCl/ADR-RES,IC50-HUVEC/IC50-NCI/ADR-RES,1.2
same,cytotoxic activity against NCI/ADR-RES,result in words,moderate activity
